Data set [1] can be described thus: Dilution of PEG-400 or polysorbate-80 solution of sertraline base into 0.9% NaCl (precipitation test). The data set is classed as physicochemical. As to conditions: for Observed Concentration after Dilution in Saline, after 15 min / Observed Concentration after Dilution in Saline, after 2 hr: 1 ml into 15 ml 0.9% NaCl pH 4.2. On the procedure: One ml of this test solution was added to 15 ml normal saline (0.9% NaCl, pH 4.2), and was stirred vigorously. […]

The nature of data set [2]: Precipitation studies: sertraline base solution in vehicle added to 0.1 N HCl or phosphate buffered saline pH 5.8. The format is physicochemical.
Experimental: Solution (a) is a simulated gastric fluid, and solution (b) is a simulated intestinal fluid.
PEG-400 is miscible with aqueous media, while Capmul® -MCM and safflower oil are not. One milliliter of the test solution was added to 10 mL of (a) 0.1 N HCl solution and (b) phosphate buffered saline (PBS) pH 5.8 and was stirred vigorously.
• Mobile phase: per liter of mobile phase: 270 mL of tetrahydrofuran, 230 mL of methanol and 400 mL of buffer. The buffer consisted of 25 mM triethylamine phosphate. It was prepared by adding 1.7 mL of phosphoric acid and 3.5 mL of tirethylamine to 1 liter of water.
The nature of data set [3]: physchem.
Assay in data set [4]: not given
The source holds these as a separate data set.

The conditions of data set [5]: in vivo.
The conditions of data set [6]: known oral immediate-release dosage forms; cited from earlier work.
Data set [7] is described as follows: Chloride-induced gelling of saturated aqueous sertraline salt solutions. The data set is classed as physicochemical.
Where [8] appears, read: PEG-400, 50 mgA/ml in vehicle, expected 3.1.
The mark [9] stands for this setting: PEG-400, 100 mgA/ml in vehicle, expected 6.25.
[10] abbreviates: Polysorbate-80, 50 mgA/ml in vehicle, expected 3.1.
[11] abbreviates: Polysorbate-80, 100 mgA/ml in vehicle, expected 6.25.

Values after ≈ are worked out from the molar mass of the structure shown. Counter-ions that a name gives are not always drawn.

For the molecule `CN[C@H]1CC[C@@H](c2ccc(Cl)c(Cl)c2)c2ccccc21` [Free base, sertraline free base], the “Equilibrium solubility in Olive oil” value is above 50 mgA/ml and the “Equilibrium solubility in Safflower oil” value is above 50 mgA/ml. Further, in data set [1] (setting [8]), the “Observed Concentration after Dilution in Saline, after 15 min” value (“Observed Concentration … after 15 min” for short) was 0.9 mgA/ml and the “Observed Concentration after Dilution in Saline, after 2 hr” value (“Observed Concentration … after 2 hr” for short) was determined as 2.1 mgA/ml. In addition, in data set [1] (setting [9]), the “Observed Concentration … after 15 min” value came out at 0.7 mgA/ml and the “Observed Concentration … after 2 hr” value is reported as 1.8 mgA/ml. The “Precipitation upon addition to a NaCl solution” value in data set [1] (PEG-400 solution) is on record as “a portion of the sertraline precipitates”. In data set [1] (setting [10]), the “Observed Concentration … after 15 min” value is 3.1 mgA/ml and the “Observed Concentration … after 2 hr” value came out at 3.1 mgA/ml. Also, in data set [1] (setting [11]), the “Observed Concentration … after 15 min” value is 6.25 mgA/ml and the “Observed Concentration … after 2 hr” value was 6.25 mgA/ml. In data set [1] (Polysorbate-80 solution), the “Precipitation upon addition to a NaCl solution” value is “no precipitation occurs”. In data set [2] (Capmul MCM 50 mgA/mL, 1 mL into 10 mL 0.1 N HCl, 15 minutes), the “Concentration of sertraline in non-aqueous layer” value turned out to be 44 mgA/ mL. In data set [2] (Capmul MCM 50 mgA/mL, 1 mL into 10 mL 0.1 N HCl, 15 minutes, expected 5.00), the “Concentration of sertraline in aqueous layer” value is reported as 0.38 mgA/ mL. Further, the “Concentration of sertraline in non-aqueous layer” value in data set [2] (Capmul MCM 50 mgA/mL, 1 mL into 10 mL 0.1 N HCl, 120 minutes) was 44.2 mgA/ mL. In addition, the “Concentration of sertraline in aqueous layer” value in data set [2] (Capmul MCM 50 mgA/mL, 1 mL into 10 mL 0.1 N HCl, 120 minutes, expected 5.00) came to 0.31 mgA/ mL. Moreover, the “Concentration of sertraline in non-aqueous layer” value in data set [2] (Capmul MCM 50 mgA/mL, 1 mL into 10 mL Phosphate buffered saline pH 5.8, 15 minutes) came to 48 mgA/ mL. Moreover, in data set [2] (Capmul MCM 50 mgA/mL, 1 mL into 10 mL Phosphate buffered saline pH 5.8, 15 minutes, expected 5.00), the “Concentration of sertraline in aqueous layer” value amounted to 0.18 mgA/ mL. Besides, in data set [2] (Capmul MCM 50 mgA/mL, 1 mL into 10 mL Phosphate buffered saline pH 5.8, 120 minutes), the “Concentration of sertraline in non-aqueous layer” value is listed as 48.6 mgA/ mL. Besides, in data set [2] (Capmul MCM 50 mgA/mL, 1 mL into 10 mL Phosphate buffered saline pH 5.8, 120 minutes, expected 5.00), the “Concentration of sertraline in aqueous layer” value worked out at 0.16 mgA/ mL. Besides, in data set [2] (Capmul-MCM vehicle), the “precipitation of sertraline” value is “essentially no precipitation”. The “portion of sertraline that remains in solution” value in data set [2] (Capmul-MCM vehicle, 0.1 N HCl or phosphate buffered saline) was > 95 % of added amount. The “Concentration of sertraline in aqueous layer” value in data set [2] (PEG 400 50 mgA/mL, 1 mL into 10 mL 0.1 N HCl, 15 minutes, expected 4.55) is given as 0.6 mgA/ mL. Also, in data set [2] (PEG 400 50 mgA/mL, 1 mL into 10 mL 0.1 N HCl, 120 minutes, expected 4.55), the “Concentration of sertraline in aqueous layer” value is reported as 0.35 mgA/ mL. In data set [2] (PEG 400 50 mgA/mL, 1 mL into 10 mL Phosphate buffered saline pH 5.8, 15 minutes, expected 4.55), the “Concentration of sertraline in aqueous layer” value came to 0.16 mgA/ mL. Besides, in data set [2] (PEG 400 50 mgA/mL, 1 mL into 10 mL Phosphate buffered saline pH 5.8, 120 minutes, expected 4.55), the “Concentration of sertraline in aqueous layer” value worked out at 0.12 mgA/ mL. The “precipitation of sertraline” value in data set [2] (PEG 400 solution into either 0.1 N HCl or phosphate buffered saline) is given as “precipitation of a large proportion of sertraline”. In addition, in data set [2] (Safflower oil 50 mgA/mL, 1 mL into 10 mL 0.1 N HCl, 15 minutes), the “Concentration of sertraline in non-aqueous layer” value was 4.8 mgA/ mL. In addition, in data set [2] (Safflower oil 50 mgA/mL, 1 mL into 10 mL 0.1 N HCl, 15 minutes, expected 5.00), the “Concentration of sertraline in aqueous layer” value amounted to 0.48 mgA/ mL. In addition, the “Concentration of sertraline in non-aqueous layer” value in data set [2] (Safflower oil 50 mgA/mL, 1 mL into 10 mL 0.1 N HCl, 120 minutes) is recorded as 3.2 mgA/ mL. For the same molecule, the “Concentration of sertraline in aqueous layer” value in data set [2] (Safflower oil 50 mgA/mL, 1 mL into 10 mL 0.1 N HCl, 120 minutes, expected 5.00) is 0.48 mgA/ mL. Besides, the “Concentration of sertraline in non-aqueous layer” value in data set [2] (Safflower oil 50 mgA/mL, 1 mL into 10 mL Phosphate buffered saline pH 5.8, 15 minutes) turned out to be 45 mgA/ mL. Besides, the “Concentration of sertraline in aqueous layer” value in data set [2] (Safflower oil 50 mgA/mL, 1 mL into 10 mL Phosphate buffered saline pH 5.8, 15 minutes, expected 5.00) is 0.19 mgA/ mL. Moreover, the “Concentration of sertraline in non-aqueous layer” value in data set [2] (Safflower oil 50 mgA/mL, 1 mL into 10 mL Phosphate buffered saline pH 5.8, 120 minutes) is 44.6 mgA/ mL. For the same molecule, the “Concentration of sertraline in aqueous layer” value in data set [2] (Safflower oil 50 mgA/mL, 1 mL into 10 mL Phosphate buffered saline pH 5.8, 120 minutes, expected 5.00) worked out at 0.19 mgA/ mL. Also, the “precipitation of sertraline” value in data set [2] (safflower oil solution added to phosphate buffered saline) is recorded as “little or no precipitation”. Also, the precipitation of sertraline in data set [2] (safflower oil vehicle, in the presence of 0.1N HCl) is 81%. For the same molecule, the “Equilibrium solubility in Capmul-®MCM” value (capmul-mcm) was above 50 mgA/ml. The “Equilibrium solubility in Captex® 200” value (captex 200) is on record as above 50 mgA/ml. The “Equilibrium solubility in Migloyol® 810” value (miglyol 810) is given as above 50 mgA/ml. Besides, where the note is “oleic acid”, the “Equilibrium solubility in Oleic acid” value was above 50 mgA/ml. Besides, the solubility in data set [3] (polysorbate-80, organic solvent or mixture) is around 102 mg/mL (≈ 333 mM).

Take `CN[C@H]1CC[C@@H](c2ccc(Cl)c(Cl)c2)c2ccccc21` [Hydrochloride, sertraline hydrochloride]: the “Equilibrium solubility in Olive oil” value is <0.01 (below detection limit) mgA/ml and the “Equilibrium solubility in Safflower oil” value was <0.01 (below detection limit) mgA/ml. Further, the “Solubility in Polysorbate-80” value in data set [4] is listed as below 14 mgA/ml. For the same molecule, the solubility in data set [3] (capmul-mcm, organic solvent or mixture, Solubility in Capmul-MCM) was around 45 mg/mL. Moreover, the solubility in data set [3] (safflower oil, organic solvent or mixture, Solubility in Safflower Oil) was below 9 mg/mL.

`CN[C@H]1CC[C@@H](c2ccc(Cl)c(Cl)c2)c2ccccc21` [sertraline]: the half-time for absorption entry in data set [5] is listed as “less than 27.7 minutes”. Moreover, the Tmax in data set [6] was 6 to 7 h.

Take sertraline acetate: the “appearance of saturated solution at physiological chloride concentrations” value in data set [7] is “thick pasty solid which does not flow”.

As to sertraline lactate, the “appearance of saturated solution at physiological chloride concentrations” value in data set [7] was “thick pasty solid which does not flow”.

The values above are taken from patent EP0980241B1 (Pfizer Products Inc., priority 1997, dated 1999).
